Reference: patent publication US20180073018A1, “COMPOSITIONS AND METHODS FOR SPECIFIC REACTIVATION OF HIV LATENT RESERVOIR” (priority 2015, published 2018)

Test system: TZM-bI cells
Experiment: CellTiter-Glo luminescent cell viability assay in TZM-bI cells
Assay type: cell-based
Settings: TZM-bI, 5,000 nM
Experimental: FIG. 10A, FIG. 10B: TZM-bI cells were infected with indicated lentiviruses for 1 d and triple antibiotic selection with puromycin/hygromycin/zeoin (P/H/Z) was maintained for 4 d before passage, OneGlo luciferase reporter assay (FIG. 10A) and CellTiter-Glo® luminescent cell viability assay (FIG. 10B). FIG. 10C, FIG. 10D: CHME5 cells were infected with indicated lentiviruses and cultured for 5 d in the absence or presence of P/H/Z triple selection. Flow cytometry analysis was performed for reactivation efficiency (FIG. 10C) and total survival cell number (FIG. 10D). FIG. 10E: Caspase-Glo® 3/7 Assay was performed at 2 dpi to evaluate apoptotic cell death. […] FIG. 10F, FIG. 10G: The 2D10 cells were infected for 1 and 4 dpi, and the reactivation efficiency (FIG. 10F) and relative total survival cell number (FIG. 10G) were determined by flow cytometry. *p<0.05 and **p<0.01 indicate statistical significance by ANOVA and FLSD test.
FIG. 12A, FIG. 12B, FIG. 12C: The dCas9-VPH stable TZM-bI cells were treated with SAHA or infected with indicated msgRNAs lentivirus for 2-4 d before luminescence reporter assay (FIG. 12A) and CELLTITER-GLO® luminescent cell viability assay (FIG. 12B). […]
The cell growth/proliferation was determined by the trypan blue exclusion hemocytometry, and CELLTITER-GLO luminescence viability assay (Promega). […]

Structure (SMILES): O=C(CCCCCCC(=O)Nc1ccccc1)NO [SAHA, suberoylanilide hydroxamic acid]
- cell viability: killed all the cells
